Reference: US10011611B2, “Histone deacetylase inhibitors and methods for use thereof” (Reaction Biology Corp., priority 2015, dated 2018)

Tests used:
Human HDAC11 = Human HDAC11 (Homo sapiens (Human), UniProt Q96DB2); experiment: HDAC11 biochemical fluorescent activity assay; details: substrate Arg-His-Lys-Lys(Ac)
Human HDAC2 = Human HDAC2 (Homo sapiens (Human), UniProt Q92769); experiment: HDAC2 biochemical fluorescent activity assay; details: substrate Arg-His-Lys-Lys(Ac)
Recombinant human HDAC6 = Recombinant human HDAC6 (Homo sapiens (Human), UniProt Q9UBN7); experiment: HDAC6 biochemical fluorescent activity assay; details: substrate Arg-His-Lys-Lys(Ac)
Chain of Recombinant human HDAC6 (Q9UBN7 whole entry): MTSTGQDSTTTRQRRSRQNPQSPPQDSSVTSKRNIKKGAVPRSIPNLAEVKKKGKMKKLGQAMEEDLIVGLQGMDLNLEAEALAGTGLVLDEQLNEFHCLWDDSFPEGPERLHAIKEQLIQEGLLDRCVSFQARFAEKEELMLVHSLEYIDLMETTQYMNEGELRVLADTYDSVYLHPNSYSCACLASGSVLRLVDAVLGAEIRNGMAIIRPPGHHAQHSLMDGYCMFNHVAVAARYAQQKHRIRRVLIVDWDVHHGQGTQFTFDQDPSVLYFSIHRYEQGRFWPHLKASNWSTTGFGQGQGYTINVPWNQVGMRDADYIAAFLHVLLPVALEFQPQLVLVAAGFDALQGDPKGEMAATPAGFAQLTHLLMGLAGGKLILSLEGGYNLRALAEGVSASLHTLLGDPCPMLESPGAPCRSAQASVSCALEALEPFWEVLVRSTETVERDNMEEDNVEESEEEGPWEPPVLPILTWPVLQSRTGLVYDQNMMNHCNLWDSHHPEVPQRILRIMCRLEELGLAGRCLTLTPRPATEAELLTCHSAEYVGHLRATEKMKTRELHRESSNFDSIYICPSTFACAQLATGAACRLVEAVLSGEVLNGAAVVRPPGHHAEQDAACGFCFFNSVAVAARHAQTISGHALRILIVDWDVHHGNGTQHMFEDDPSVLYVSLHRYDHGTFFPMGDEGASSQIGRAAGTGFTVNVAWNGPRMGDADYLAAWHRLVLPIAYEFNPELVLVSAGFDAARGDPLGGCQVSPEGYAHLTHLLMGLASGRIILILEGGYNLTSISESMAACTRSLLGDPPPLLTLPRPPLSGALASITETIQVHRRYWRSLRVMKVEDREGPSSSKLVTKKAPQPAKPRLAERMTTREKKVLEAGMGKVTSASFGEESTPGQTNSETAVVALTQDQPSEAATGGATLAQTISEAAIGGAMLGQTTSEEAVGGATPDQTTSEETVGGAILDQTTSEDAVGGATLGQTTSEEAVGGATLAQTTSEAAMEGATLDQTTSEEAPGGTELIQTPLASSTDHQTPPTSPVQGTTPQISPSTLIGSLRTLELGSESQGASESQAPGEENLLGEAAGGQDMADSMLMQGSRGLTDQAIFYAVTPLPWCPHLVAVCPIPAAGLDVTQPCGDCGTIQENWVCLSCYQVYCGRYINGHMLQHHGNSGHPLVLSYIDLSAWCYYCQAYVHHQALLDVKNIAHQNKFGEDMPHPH

Human HDAC5 = Human HDAC5 (Homo sapiens (Human), UniProt Q9UQL6); experiment: HDAC5 biochemical fluorescent activity assay
Chain of Human HDAC5 (Q9UQL6 whole entry): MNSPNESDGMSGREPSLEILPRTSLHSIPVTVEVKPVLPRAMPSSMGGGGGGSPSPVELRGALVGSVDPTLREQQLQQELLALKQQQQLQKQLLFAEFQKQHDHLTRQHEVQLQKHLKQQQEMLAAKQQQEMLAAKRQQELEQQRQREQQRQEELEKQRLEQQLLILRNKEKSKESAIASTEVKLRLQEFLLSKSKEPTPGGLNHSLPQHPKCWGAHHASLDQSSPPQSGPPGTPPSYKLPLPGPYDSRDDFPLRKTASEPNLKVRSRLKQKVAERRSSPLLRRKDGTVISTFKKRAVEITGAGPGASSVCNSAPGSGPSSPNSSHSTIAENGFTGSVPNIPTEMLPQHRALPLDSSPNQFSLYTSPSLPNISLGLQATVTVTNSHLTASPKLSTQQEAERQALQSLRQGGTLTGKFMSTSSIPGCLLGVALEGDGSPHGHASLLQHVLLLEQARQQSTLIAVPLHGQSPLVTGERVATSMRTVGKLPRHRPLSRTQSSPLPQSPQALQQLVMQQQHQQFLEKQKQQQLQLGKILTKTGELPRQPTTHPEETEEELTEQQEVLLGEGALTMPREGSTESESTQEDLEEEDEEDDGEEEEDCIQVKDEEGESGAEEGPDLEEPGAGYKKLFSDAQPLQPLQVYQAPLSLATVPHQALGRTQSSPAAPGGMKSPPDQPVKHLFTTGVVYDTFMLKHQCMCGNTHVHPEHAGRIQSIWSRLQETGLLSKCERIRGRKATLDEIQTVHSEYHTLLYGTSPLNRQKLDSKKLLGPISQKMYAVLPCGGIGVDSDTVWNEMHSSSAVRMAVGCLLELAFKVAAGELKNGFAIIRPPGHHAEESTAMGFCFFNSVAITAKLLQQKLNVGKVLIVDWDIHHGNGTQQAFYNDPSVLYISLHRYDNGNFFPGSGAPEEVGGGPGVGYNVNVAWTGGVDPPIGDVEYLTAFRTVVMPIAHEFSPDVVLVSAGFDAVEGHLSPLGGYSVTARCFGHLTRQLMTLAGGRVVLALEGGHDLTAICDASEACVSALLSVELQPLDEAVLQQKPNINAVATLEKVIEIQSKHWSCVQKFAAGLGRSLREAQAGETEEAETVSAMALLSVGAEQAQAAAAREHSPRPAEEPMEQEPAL

Human HDAC8 = Human HDAC8 (Homo sapiens (Human), UniProt Q9BY41); experiment: HDAC8 biochemical fluorescent activity assay; details: substrate Arg-His-Lys(Ac)-Lys(Ac)
Chain of Human HDAC8 (Q9BY41 whole entry): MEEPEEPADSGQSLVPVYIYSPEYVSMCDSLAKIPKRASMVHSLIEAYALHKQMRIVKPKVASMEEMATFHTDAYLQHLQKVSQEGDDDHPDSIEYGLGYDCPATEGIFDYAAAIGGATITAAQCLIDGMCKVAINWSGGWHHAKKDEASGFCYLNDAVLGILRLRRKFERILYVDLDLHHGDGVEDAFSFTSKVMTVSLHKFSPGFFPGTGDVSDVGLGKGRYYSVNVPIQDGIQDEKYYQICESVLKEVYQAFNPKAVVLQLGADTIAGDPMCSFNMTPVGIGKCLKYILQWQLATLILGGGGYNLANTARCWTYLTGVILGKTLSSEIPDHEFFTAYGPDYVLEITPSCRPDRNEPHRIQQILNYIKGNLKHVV

Human HDAC10 = Human HDAC10 (Homo sapiens (Human), UniProt Q969S8); experiment: HDAC10 biochemical fluorescent activity assay; details: substrate Arg-His-Lys-Lys(Ac)
Chain of Human HDAC10 (Q969S8 1-481): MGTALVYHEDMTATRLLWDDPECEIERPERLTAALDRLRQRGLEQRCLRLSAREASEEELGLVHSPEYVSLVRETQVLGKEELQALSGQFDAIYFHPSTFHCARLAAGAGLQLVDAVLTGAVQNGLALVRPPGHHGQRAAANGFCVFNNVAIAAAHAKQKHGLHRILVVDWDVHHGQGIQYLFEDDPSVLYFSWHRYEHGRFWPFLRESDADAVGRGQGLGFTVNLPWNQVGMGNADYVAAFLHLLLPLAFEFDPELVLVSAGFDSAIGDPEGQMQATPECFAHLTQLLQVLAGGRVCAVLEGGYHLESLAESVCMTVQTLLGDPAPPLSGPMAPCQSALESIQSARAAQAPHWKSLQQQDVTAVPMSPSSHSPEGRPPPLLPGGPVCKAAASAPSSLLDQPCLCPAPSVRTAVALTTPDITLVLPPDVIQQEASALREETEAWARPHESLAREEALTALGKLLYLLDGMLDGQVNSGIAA

Human HDAC1 = Human HDAC1 (Homo sapiens (Human), UniProt Q13547); experiment: HDAC1 biochemical fluorescent activity assay; details: substrate Arg-His-Lys-Lys(Ac)
Chain of Human HDAC1 (Q13547 whole entry): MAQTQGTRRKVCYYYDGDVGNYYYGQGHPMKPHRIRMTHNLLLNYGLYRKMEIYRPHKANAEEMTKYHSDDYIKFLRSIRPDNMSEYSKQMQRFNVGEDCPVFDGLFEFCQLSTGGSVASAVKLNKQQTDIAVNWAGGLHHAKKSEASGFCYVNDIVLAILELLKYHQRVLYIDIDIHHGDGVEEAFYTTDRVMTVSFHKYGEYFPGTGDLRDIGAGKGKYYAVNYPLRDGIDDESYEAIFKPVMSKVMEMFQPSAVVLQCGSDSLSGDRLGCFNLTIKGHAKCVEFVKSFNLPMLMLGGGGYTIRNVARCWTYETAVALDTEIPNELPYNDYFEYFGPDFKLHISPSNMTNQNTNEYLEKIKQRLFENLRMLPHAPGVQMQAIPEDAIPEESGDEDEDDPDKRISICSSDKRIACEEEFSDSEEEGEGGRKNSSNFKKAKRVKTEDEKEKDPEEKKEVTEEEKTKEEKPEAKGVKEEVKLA

Chain of Human HDAC2 (Q92769 whole entry): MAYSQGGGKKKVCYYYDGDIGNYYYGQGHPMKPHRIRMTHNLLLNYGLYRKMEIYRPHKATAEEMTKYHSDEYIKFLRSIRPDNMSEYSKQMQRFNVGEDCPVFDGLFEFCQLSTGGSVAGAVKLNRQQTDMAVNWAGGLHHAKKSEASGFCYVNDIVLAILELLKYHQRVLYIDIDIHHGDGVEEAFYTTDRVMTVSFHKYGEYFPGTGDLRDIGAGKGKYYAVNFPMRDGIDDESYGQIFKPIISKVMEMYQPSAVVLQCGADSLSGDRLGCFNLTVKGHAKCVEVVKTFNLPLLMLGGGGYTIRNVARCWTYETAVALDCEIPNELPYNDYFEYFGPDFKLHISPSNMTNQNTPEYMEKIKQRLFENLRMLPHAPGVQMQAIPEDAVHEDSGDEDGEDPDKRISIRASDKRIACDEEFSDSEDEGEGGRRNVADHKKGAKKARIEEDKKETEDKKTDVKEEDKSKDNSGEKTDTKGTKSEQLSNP
Chain of Human HDAC11 (Q96DB2 whole entry): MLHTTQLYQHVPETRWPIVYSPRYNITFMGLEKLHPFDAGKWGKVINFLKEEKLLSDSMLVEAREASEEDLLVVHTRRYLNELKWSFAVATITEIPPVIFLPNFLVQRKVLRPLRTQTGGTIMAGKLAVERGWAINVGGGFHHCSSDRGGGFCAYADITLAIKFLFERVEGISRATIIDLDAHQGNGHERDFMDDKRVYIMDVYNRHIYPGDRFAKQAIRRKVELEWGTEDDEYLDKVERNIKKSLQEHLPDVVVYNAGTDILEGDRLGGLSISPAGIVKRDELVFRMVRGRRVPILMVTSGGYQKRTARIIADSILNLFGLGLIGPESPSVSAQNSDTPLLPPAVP

IC50 (Human HDAC11): 2840 nM | IC50 (Human HDAC2): 5400 nM | IC50 (Recombinant human HDAC6): 0.958 nM | IC50 (Human HDAC5): 508 nM | IC50 (Human HDAC8): 27.1 nM | IC50 (Human HDAC10): 4260 nM | IC50 (Human HDAC1): 175 nM
SMILES: O=C(NO)c1ccc(Cn2sc3ncccc3c2=O)cc1 [RBC-3001-A, N-hydroxy-4-((3-oxoisothiazolo[5,4-b]pyridin-2(3H)-yl)methyl)benzamide]
